Data from PubChem BioAssay AID1963832 (Molecular Pharmacology Branch, DTP, NCI, 2024).

Tested on: 885724-159-R-J1-PDC complex spheroid viability
Test: Anticancer human tumor 885724-159-R-J1-PDC patient-derived pancreatic adenocarcinoma cell line growth inhibition [POLQ]
Conditions: for IC50: curve of first compound; for viability, T/C: stronger effect = lower value
Summary of the method: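 PDC + HUVEC + MSC complex spheroids; POLQ inhibitors ± partner drugs; top conc. at/near clinical Cmax, else 10 microM (SN-38 1 microM), half-log dilutions; 37 degrees C, 5% CO2.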

[1] = second compound 0.0316 µM, first compound 0.0316 µM
[2] = second compound 0.0316 µM, first compound 0.1 µM
[3] = second compound 0.0316 µM, first compound 0.316 µM
[4] = second compound 0.0316 µM, first compound 1 µM
[5] = second compound 0.0316 µM, first compound 3.16 µM
[6] = second compound 0.0316 µM, first compound 10 µM
[7] = second compound 0.1 µM, first compound 0.0316 µM
[8] = second compound 0.1 µM, first compound 0.1 µM
[9] = second compound 0.1 µM, first compound 0.316 µM
[10] = second compound 0.1 µM, first compound 1 µM
[11] = second compound 0.1 µM, first compound 3.16 µM
[12] = second compound 0.1 µM, first compound 10 µM
[13] = second compound 0.316 µM, first compound 0.0316 µM
[14] = second compound 0.316 µM, first compound 0.1 µM
[15] = second compound 0.316 µM, first compound 0.316 µM
[16] = second compound 0.316 µM, first compound 1 µM
[17] = second compound 0.316 µM, first compound 3.16 µM
[18] = second compound 0.316 µM, first compound 10 µM
[19] = second compound 1 µM, first compound 0.0316 µM
[20] = second compound 1 µM, first compound 0.1 µM
[21] = second compound 1 µM, first compound 0.316 µM
[22] = second compound 1 µM, first compound 1 µM
[23] = second compound 1 µM, first compound 3.16 µM
[24] = second compound 1 µM, first compound 10 µM
[25] = second compound 3.16 µM, first compound 0.0316 µM
[26] = second compound 3.16 µM, first compound 0.1 µM
[27] = second compound 3.16 µM, first compound 0.316 µM
[28] = second compound 3.16 µM, first compound 1 µM
[29] = second compound 3.16 µM, first compound 3.16 µM
[30] = second compound 3.16 µM, first compound 10 µM
[31] = second compound 10 µM, first compound 0.0316 µM
[32] = second compound 10 µM, first compound 0.1 µM
[33] = second compound 10 µM, first compound 0.316 µM
[34] = second compound 10 µM, first compound 1 µM
[35] = second compound 10 µM, first compound 3.16 µM
[36] = second compound 10 µM, first compound 10 µM
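Also: spheroids exposed to compounds for 7 days.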

## CCc1cc2c(N3CCc4c(cc(Cn5ccnc5)cc4-c4cn(C)nc4C(F)(F)F)C3=O)cc(C)nc2c(OC)n1 + Nc1ccc(C#CCN(C(=O)Cc2ncc(C(F)(F)F)cc2C(F)(F)F)c2ccc(F)cc2)nn1
Second compound 0.0316 µM
  IC50: > 10 µM
Second compound 0.1 µM
  IC50: > 10 µM
Second compound 0.316 µM
  IC50: > 10 µM
Second compound 1 µM
  IC50: > 10 µM
Second compound 3.16 µM
  IC50: > 10 µM
Second compound 10 µM
  IC50: > 10 µM
[1]
  viability, T/C: 84.1%
[2]
  viability, T/C: 82.4%
[3]
  viability, T/C: 79.4%
[4]
  viability, T/C: 79.3%
[5]
  viability, T/C: 75.8%
[6]
  viability, T/C: 69.2%
[7]
  viability, T/C: 91.8%
[8]
  viability, T/C: 87.3%
[9]
  viability, T/C: 75.8%
[10]
  viability, T/C: 77.1%
[11]
  viability, T/C: 70.9%
[12]
  viability, T/C: 60.3%
[13]
  viability, T/C: 86.7%
[14]
  viability, T/C: 84.8%
[15]
  viability, T/C: 82.2%
[16]
  viability, T/C: 85.2%
[17]
  viability, T/C: 69.5%
[18]
  viability, T/C: 69.7%
[19]
  viability, T/C: 89%
[20]
  viability, T/C: 90.9%
[21]
  viability, T/C: 78.3%
[22]
  viability, T/C: 71.8%
[23]
  viability, T/C: 73.1%
[24]
  viability, T/C: 67.2%
[25]
  viability, T/C: 79.3%
[26]
  viability, T/C: 72%
[27]
  viability, T/C: 78.3%
[28]
  viability, T/C: 85.4%
[29]
  viability, T/C: 75.2%
[30]
  viability, T/C: 69.8%
[31]
  viability, T/C: 88%
[32]
  viability, T/C: 88%
[33]
  viability, T/C: 85.2%
[34]
  viability, T/C: 76.8%
[35]
  viability, T/C: 89.9%
[36]
  viability, T/C: 73%

## CCc1cc2c(N3CCc4c(cc(Cn5ccnc5)cc4-c4cn(C)nc4C(F)(F)F)C3=O)ccnc2c(OC)n1 + Nc1ccc(C#CCN(C(=O)Cc2ncc(C(F)(F)F)cc2C(F)(F)F)c2ccc(F)cc2)nn1
Second compound 0.0316 µM
  IC50: > 10 µM
Second compound 0.1 µM
  IC50: > 10 µM
Second compound 0.316 µM
  IC50: > 10 µM
Second compound 1 µM
  IC50: > 10 µM
Second compound 3.16 µM
  IC50: > 10 µM
Second compound 10 µM
  IC50: > 10 µM
[1]
  viability, T/C: 81.6%
[2]
  viability, T/C: 85.8%
[3]
  viability, T/C: 90.6%
[4]
  viability, T/C: 90%
[5]
  viability, T/C: 73.5%
[6]
  viability, T/C: 64.4%
[7]
  viability, T/C: 78.7%
[8]
  viability, T/C: 81.9%
[9]
  viability, T/C: 79.6%
[10]
  viability, T/C: 84.7%
[11]
  viability, T/C: 86.6%
[12]
  viability, T/C: 67.6%
[13]
  viability, T/C: 86.5%
[14]
  viability, T/C: 86.6%
[15]
  viability, T/C: 85.7%
[16]
  viability, T/C: 80%
[17]
  viability, T/C: 83.8%
[18]
  viability, T/C: 69.8%
[19]
  viability, T/C: 88.9%
[20]
  viability, T/C: 74.2%
[21]
  viability, T/C: 78.5%
[22]
  viability, T/C: 80.8%
[23]
  viability, T/C: 80.1%
[24]
  viability, T/C: 70.8%
[25]
  viability, T/C: 85.6%
[26]
  viability, T/C: 74.2%
[27]
  viability, T/C: 77%
[28]
  viability, T/C: 81.4%
[29]
  viability, T/C: 79.5%
[30]
  viability, T/C: 68.1%
[31]
  viability, T/C: 90.7%
[32]
  viability, T/C: 80.7%
[33]
  viability, T/C: 82.2%
[34]
  viability, T/C: 83.8%
[35]
  viability, T/C: 81.5%
[36]
  viability, T/C: 68.3%
